Experimental data from ChEMBL document CHEMBL1201862, “PubChem BioAssay data set” (2004).
Several values for one entry are separate records, joined by “and”; a condition that tells them apart may be missing. Equal values may be shown once. Activity calls are given as the source filed them.

What was measured:
[1] = molecular target: Vasopressin V1b receptor (Homo sapiens, UniProt P47901); experiment: Late-stage results from the probe development effort to identify antagonists of arginine vasopressin receptor 1a (AVPR1a): fluorescence-based cell-based dose response AVPR1b inhibition counterscreen assay.; assay type: functional
[2] = Late-stage results from the probe development effort to identify antagonists of arginine vasopressin receptor 1a (AVPR1a): fluorescence-based cell-based dose response OXTR inhibition counterscreen assay.; assay type: functional
[3] = Late-stage results from the probe development effort to identify antagonists of arginine vasopressin receptor 1a (AVPR1a): luminescence-based cell-based dose response counterscreen assay to determine cytotoxicity of the test compound.; assay type: functional
[4] = Late-stage results from the probe development effort to identify antagonists of arginine vasopressin receptor 1a (AVPR1a): fluorescence-based cell-based dose response AVPR1a inhibition assay.; assay type: functional
[5] = molecular target: Vasopressin V2 receptor (Homo sapiens, UniProt P30518); experiment: Late-stage results from the probe development effort to identify antagonists of arginine vasopressin receptor 1a (AVPR1a): fluorescence-based cell-based dose response AVPR2 inhibition counterscreen assay.; assay type: functional
[6] = cytotoxicity dependent on PAX8, dose response, cell-based, plate reader, dry powder (AID 743049); assay type: functional
[7] = NIH:OVCAR-3 ovarian cancer cell cytotoxicity, dose response, PAX8 inhibitor project, plate reader, dry powder samples (AID 743044); assay type: functional, cell-based
[8] = cytotoxicity in OV-90 ovarian cancer cells, dose response, PAX8 inhibitor project, cell-based, plate reader, dry powder, SA8 (AID 743149); assay type: functional
[9] = cytotoxicity in COV434 cells, dose response, cytotoxicity control for PAX8 inhibitor project, cell-based, plate reader, dry powder, SA7 (AID 743145); assay type: functional
[10] = PAX5 activity inhibitors, dose response, selectivity assay for PAX8 inhibitor project, cell-based, plate reader, dry powder samples (AID 743047); assay type: functional;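 also: HEK293 cells carrying a Pax5 driven CD19 promoter luciferase reporter; potency of inhibitors that lower reporter luminescence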
[11] = HEK293 cell viability, dose response, counter-screen for EBV LMP1 inhibitor project, dry powder, set 2 (AID 624374); assay type: functional
[12] = cytotoxicity in COV362 ovarian cancer cells, dose response, cytotoxicity control for PAX8 inhibitor project, cell-based, plate reader, dry powder, SA12 (AID 743144); assay type: functional
[13] = PAX2 cell-based inhibition, dose response, selectivity assay for PAX8 inhibitor project, plate reader, dry powder samples (AID 743048); assay type: functional;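 also: HEK293 cells carrying a WT1 promoter luciferase reporter driven by expressed Pax2; potency is for inhibition of Pax2 driven reporter signal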
[14] = molecular target: Paired box protein Pax-8 (Homo sapiens, UniProt Q06710); experiment: inhibitors of PAX8-driven TPO luciferase reporter, dose response, RMG-I cells, cherry-pick (AID 687027); assay type: functional, cell-based;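 also: luciferase reporter driven by Pax8 target thyroperoxidase promoter measured by SteadyGlo luminescence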
[15] = P. falciparum late gametocyte killing, dose response, luminescence (AID 1117278); assay type: functional, cell-based;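 also: gametocytes exposed to compound for 24 hours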
[16] = Jurkat T cell cytotoxicity, dose response, cytotoxicity control for P. falciparum gametocyte viability project, luminescence (AID 1117277); assay type: functional, cell-based;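 also: potency reflects loss of cellular ATP meaning fewer viable cells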
[17] = CEM21 cell cytotoxicity, dose response, cytotoxicity control, plate reader, dry powder (AID 687026); assay type: functional, cell-based
[18] = HIV Env cell-cell fusion inhibitors, dose response, HIV entry, plate reader, dry powder (AID 687023); assay type: functional, cell-based
[19] = P. falciparum Dd2 growth inhibitors, dose response, SYBR Green, dry powder samples, set 9 (AID 1159568); assay type: functional, cell-based
[20] = molecular target: T1, Aminopeptidase N (Plasmodium falciparum FcB1/Columbia, UniProt O96935); experiment: P. falciparum M1AAP inhibitors, biochemical, fluorogenic H-Leu-NHMec substrate, 1536-well (AID 1445); parameters: species or system Plasmodium falciparum 3D7, 3D7
T1 sequence (O96935 whole entry): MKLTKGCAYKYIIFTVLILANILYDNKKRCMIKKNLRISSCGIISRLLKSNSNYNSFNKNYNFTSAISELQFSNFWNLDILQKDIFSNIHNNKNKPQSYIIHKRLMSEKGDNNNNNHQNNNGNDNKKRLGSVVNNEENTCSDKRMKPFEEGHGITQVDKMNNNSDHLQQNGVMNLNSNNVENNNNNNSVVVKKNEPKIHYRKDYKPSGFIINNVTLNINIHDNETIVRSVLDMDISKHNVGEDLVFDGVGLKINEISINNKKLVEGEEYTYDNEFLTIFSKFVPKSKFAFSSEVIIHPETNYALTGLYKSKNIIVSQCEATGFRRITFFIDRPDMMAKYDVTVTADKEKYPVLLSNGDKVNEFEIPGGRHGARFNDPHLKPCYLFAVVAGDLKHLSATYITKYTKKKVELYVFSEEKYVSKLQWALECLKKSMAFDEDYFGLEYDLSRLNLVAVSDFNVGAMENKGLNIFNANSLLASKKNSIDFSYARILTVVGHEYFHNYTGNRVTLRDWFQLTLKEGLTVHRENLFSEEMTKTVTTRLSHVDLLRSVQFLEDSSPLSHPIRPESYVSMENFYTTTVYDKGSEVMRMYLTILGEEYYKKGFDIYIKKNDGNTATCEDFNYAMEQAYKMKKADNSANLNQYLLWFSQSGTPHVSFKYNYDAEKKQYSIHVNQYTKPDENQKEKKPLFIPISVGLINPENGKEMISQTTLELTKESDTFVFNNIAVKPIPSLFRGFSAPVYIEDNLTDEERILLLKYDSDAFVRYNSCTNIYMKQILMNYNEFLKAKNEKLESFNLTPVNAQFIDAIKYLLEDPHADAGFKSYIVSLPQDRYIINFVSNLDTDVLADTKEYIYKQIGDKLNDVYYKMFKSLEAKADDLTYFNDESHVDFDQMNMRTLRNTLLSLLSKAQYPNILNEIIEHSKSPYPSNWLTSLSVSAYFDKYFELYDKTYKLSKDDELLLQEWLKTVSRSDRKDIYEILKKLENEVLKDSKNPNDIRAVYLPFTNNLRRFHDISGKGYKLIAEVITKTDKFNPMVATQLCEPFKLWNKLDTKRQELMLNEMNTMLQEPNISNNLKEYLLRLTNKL

[21] = cells; assay type: functional
[22] = molecular target: Kallikrein-7 (Homo sapiens, UniProt P49862); experiment: Fluorescence Intensity-based biochemical primary high throughput dose response assay to identify activators of kallikrein-7 (K7) zymogen.
[23] = molecular target: G-protein coupled receptor 183 (Homo sapiens, UniProt P32249); experiment: SAR confirmation of small molecule antagonists of the EBI2 receptor via a luminescent beta-arrestin assa.; assay type: functional
[24] = molecular target: T2, Low molecular weight phosphotyrosine protein phosphatase (Homo sapiens, UniProt P24666); experiment: LMPTP phosphatase inhibitors, dose response, biochemical, OMFP substrate, fluorescence intensity, set 2 (AID 743307); assay type: functional
T2 sequence (P24666 whole entry): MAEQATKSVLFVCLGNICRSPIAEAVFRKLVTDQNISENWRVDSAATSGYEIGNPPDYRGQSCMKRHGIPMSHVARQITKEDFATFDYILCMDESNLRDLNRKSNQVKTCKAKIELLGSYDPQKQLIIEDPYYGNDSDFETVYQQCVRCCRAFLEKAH

[25] = molecular target: T2, Low molecular weight phosphotyrosine protein phosphatase; experiment: LMPTP phosphatase inhibitors, colorimetric pNPP readout, dose response, orthogonal assay, biochemical, absorbance, pNPP substrate, LMPTP-A isoform, set 2 (AID 743308); assay type: functional

Chain of Vasopressin V1b receptor (P47901 whole entry): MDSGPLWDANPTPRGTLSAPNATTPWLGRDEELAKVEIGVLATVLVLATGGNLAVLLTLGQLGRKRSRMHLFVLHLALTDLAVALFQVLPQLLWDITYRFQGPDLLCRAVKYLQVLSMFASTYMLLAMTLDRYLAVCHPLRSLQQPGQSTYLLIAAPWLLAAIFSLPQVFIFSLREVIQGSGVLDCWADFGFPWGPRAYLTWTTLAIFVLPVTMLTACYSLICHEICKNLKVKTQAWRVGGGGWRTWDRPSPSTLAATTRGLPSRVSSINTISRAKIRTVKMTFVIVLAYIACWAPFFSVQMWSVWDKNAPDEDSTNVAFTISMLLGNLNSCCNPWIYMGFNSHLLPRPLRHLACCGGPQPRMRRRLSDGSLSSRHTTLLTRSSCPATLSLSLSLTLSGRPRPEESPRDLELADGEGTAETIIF
Chain of G-protein coupled receptor 183 (P32249 whole entry): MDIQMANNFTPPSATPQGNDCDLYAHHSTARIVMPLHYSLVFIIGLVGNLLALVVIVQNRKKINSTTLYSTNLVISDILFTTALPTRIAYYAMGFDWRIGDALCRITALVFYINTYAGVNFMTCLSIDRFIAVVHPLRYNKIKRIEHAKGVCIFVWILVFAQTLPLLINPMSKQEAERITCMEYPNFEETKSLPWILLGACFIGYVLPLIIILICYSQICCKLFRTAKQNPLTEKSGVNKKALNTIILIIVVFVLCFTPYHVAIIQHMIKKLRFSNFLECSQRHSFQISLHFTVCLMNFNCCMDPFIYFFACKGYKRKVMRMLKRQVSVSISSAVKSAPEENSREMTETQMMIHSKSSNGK
Chain of Paired box protein Pax-8 (Q06710 whole entry): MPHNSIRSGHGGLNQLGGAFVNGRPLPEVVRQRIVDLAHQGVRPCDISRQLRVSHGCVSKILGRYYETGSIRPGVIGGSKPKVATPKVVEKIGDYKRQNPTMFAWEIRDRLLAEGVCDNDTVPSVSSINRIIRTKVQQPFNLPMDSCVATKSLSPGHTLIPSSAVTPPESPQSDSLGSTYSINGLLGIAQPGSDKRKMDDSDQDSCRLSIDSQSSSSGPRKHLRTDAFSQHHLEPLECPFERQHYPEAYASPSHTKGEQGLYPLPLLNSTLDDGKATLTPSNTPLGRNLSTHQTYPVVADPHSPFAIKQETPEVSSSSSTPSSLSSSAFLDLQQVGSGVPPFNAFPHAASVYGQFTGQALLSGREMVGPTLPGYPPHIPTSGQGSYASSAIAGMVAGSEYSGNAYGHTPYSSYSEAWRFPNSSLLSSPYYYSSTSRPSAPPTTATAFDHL
Chain of Kallikrein-7 (P49862 whole entry): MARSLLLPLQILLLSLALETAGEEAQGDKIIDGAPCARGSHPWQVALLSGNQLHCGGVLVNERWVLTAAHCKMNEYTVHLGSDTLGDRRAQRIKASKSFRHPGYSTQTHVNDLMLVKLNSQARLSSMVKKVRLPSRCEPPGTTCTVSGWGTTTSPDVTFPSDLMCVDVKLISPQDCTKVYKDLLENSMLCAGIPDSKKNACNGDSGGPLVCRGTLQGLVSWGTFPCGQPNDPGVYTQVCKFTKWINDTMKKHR
Chain of Vasopressin V2 receptor (P30518 whole entry): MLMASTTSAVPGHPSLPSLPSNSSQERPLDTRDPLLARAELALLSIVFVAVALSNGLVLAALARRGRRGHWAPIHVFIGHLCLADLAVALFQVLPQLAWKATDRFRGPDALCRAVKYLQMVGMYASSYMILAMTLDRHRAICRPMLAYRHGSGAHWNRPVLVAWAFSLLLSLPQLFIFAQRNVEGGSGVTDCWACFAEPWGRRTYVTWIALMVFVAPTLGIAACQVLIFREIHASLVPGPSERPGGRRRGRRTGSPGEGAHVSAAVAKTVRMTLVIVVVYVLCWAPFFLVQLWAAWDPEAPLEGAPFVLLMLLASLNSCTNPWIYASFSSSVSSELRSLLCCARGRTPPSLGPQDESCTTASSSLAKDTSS

## O=C(C1CCN(c2ccc(Cl)cn2)CC1)N(CC1CC1)c1ccc(Cl)cc1
[1]
  IC50: > 50 µM (active)
[2]
  IC50: > 50 µM (inactive)
[3]
  CC50: > 25 µM (inactive)
[4]
  IC50: 0.04 µM (active)
[5]
  IC50: > 50 µM (inactive)

## C[C@@H]1CN([C@@H](C)CO)S(=O)(=O)c2ccc(C#Cc3ccncc3)cc2O[C@H]1CN(C)C(=O)Nc1ccc2c(c1)OCO2
[6]
  AC50: 13 µM (active)
[7]
  AC50: 19.1 µM (active)
[8]
  AC50: 8.27 µM (active)
[9]
  AC50: 0.179 µM (active)
[10]
  AC50: 31.1 µM (active)
[11]
  AbsAC35: 39.06 µM
[12]
  AC50: 87.8 pM (active)
[13]
  AC50: 22.7 µM (active)
[14]
  AC50: 2.44 µM (active)

## c1ccc(CNC2=NCCS2)cc1
[15]
  IC50: > 109 µM (inactive)
[16]
  IC50: > 83.2 µM (inactive)

## COc1ccc(S(=O)(=O)NCc2ccncc2)cc1OC
[17]
  AC50: > 70 µM (inactive)
[18]
  AC50: 25.4 µM (active) and 32 µM (active)

## Cc1noc(C)c1S(=O)(=O)N(C)C[C@@H]1OCCCC[C@@H](C)Oc2ccc(N(C)C)cc2C(=O)N([C@@H](C)CO)C[C@H]1C
[19]
  AC50: 10.6 µM (active)

## O=C(Oc1c(-c2ccco2)oc2ccccc2c1=O)c1cccnc1
[20]
  IC50: 129 µM (active)
[21]
  IC50: 20.5 µM (active)
[22]
  EC50: 19.6 µM (inactive)

## O=C(/C=C/c1ccc(F)cc1)N1CCN(S(=O)(=O)c2cccs2)CC1
[23]
  IC50: 0.081 µM (active)

## c1ccc(-c2nc(NCCCN3CCOCC3)c3ccccc3n2)cc1
[24]
  IC50: 22.5 µM (inactive)
[25]
  IC50: 48.8 µM (inactive)
